This note sets out measurements from patent publication US7067486B2, “Acetylcholinesterase-derived peptides and uses thereof” (priority 1999, dated 2006).

Marks after values point to notes of the source that are not given here.

Holding throughout (assay type): cell-based, human
In test [1] the test system is CD34^+ cells. The test is described as follows: Viable cell expansion in CD34+ liquid cultures (trypan blue exclusion). Particulars: day 14; seeded at 50,000 cells/well; ARP 2 nM, cortisol 1.2 μM, ASP 2 nM, SCF 50 ng/ml, AS1 20 pM, PBAN 2 nM. An excerpt:
Cell Source: UCB was collected, following informed consent of the parents and with the approval of the Sourasky Medical Center Ethics Committee, as previously described [Grisaru et al. (1999a) Am. J. Obstet. Gynecol, 180, 1240–1243]. Following 1:1 (v/v) dilution in Iscove's modified Dulbecco medium (IMDM, Beit Haemek, Israel), mononuclear cells were separated using 3% gelatin (Difco, Detroit, Mich.) and Ficoll-Hypaque gradients (<1.077 g/ml; Pharmacia, Uppsala, Sweden) [Pick et al. (1998) Br. J. Haematol. 103, 639–50]. CD34^+ cells were enriched using CD34 immunoglobulin-coated magnetic beads (CD34 progenitor cell selection system, Dynal, Norway).CD34^+ cells analysis was performed by flow cytometry (Becton Dickinson Immunocytochemistry System Inc., San Jose, Calif.), using CD34-PE (Becton Dickinson Immunocytometry System, Inc.) and CD45-FITC (Dako, Glostrup, Denmark) monoclonal antibodies. […] Liquid Cultures: UCB CD34^+ cells were set for liquid cultures at a concentration of 10^5/mL in IMDM, containing 10% autologous plasma, 2 mM L-glutamine (Sigma Chemical Co., St Louis, Mo.), penicillin ([…]), streptomycin ([…]), amphotericin B (2×10^−5 M) (Sigma Chemical Co.), and heparin (20 IU/mL, Gibco, Grand Island, N.Y.), all in a fully humidified atmosphere at 37° C. and 5% CO2. The following elements were added where noted: • 1. Hematopoietic growth factors: Interleukin 3 (IL3, 5 ng/mL, Immunex, Seattle, Wash.), interleukin 6 (IL6, 50 ng/mL, R&D Systems, Minneapolis, Minn.), TPO (1 ng/mL, R&D Systems), stem cell factor (SCF, 10 ng/mL, R&D Systems), FLT-3 ligand (FLT3, 50 ng/mL, R&D Systems), granulocyte-macrophage colony stimulating factor (GM-CSF, 50 ng/mL, Biogenesis Ltd, Bournemouth, UK) and combinations of the above, for 24 hr to 28 days (supplemented every 4 days). • 2. Endothlial Growth factors: Epidermal growth factor (EGF 10 ng/ml, Sigma Chemical Co.), basic Fibroblast growth factor (bFGF 20 ng/ml, Sigma Chemical Co.) incubated in a serum free medium (SFM) for 48 hr. • 3. […] AChE C-terminal peptides: The following C-terminal peptides of the AChE synaptic (ASP, also denoted SEQ ID: No. 2) and readthrough (ARP, also denoted SEQ ID: No. 1) isoforms were synthesized using a 433A peptide synthesizer (PE Applied Biosystems, Inc., Norwalk, Conn.). • ASP: 1-[…]-40, also denoted as SEQ ID: No. 2. • ARP: 1-[…]-26, also denoted as SEQ ID: No. 1. […]

Test [2] concerns CD34^+ cells. The test is described as follows: Cell phenotyping of CD34+ liquid cultures by flow cytometry (CD34, CD33, CD15, CD41). Particulars: day 14; seeded at 50,000 cells/well; ARP 2 nM, cortisol 1.2 μM, ASP 2 nM, SCF 50 ng/ml, AS1 20 pM, PBAN 2 nM. From the text:
Cell Source: UCB was collected, following informed consent of the parents and with the approval of the Sourasky Medical Center Ethics Committee, as previously described [Grisaru et al. (1999a) Am. J. Obstet. Gynecol, 180, 1240–1243]. Following 1:1 (v/v) dilution in Iscove's modified Dulbecco medium (IMDM, Beit Haemek, Israel), mononuclear cells were separated using 3% gelatin (Difco, Detroit, Mich.) and Ficoll-Hypaque gradients (<1.077 g/ml; Pharmacia, Uppsala, Sweden) [Pick et al. (1998) Br. J. Haematol. 103, 639–50]. CD34^+ cells were enriched using CD34 immunoglobulin-coated magnetic beads (CD34 progenitor cell selection system, Dynal, Norway).CD34^+ cells analysis was performed by flow cytometry (Becton Dickinson Immunocytochemistry System Inc., San Jose, Calif.), using CD34-PE (Becton Dickinson Immunocytometry System, Inc.) and CD45-FITC (Dako, Glostrup, Denmark) monoclonal antibodies. […] Liquid Cultures: UCB CD34^+ cells were set for liquid cultures at a concentration of 10^5/mL in IMDM, containing 10% autologous plasma, 2 mM L-glutamine (Sigma Chemical Co., St Louis, Mo.), penicillin ([…]), streptomycin ([…]), amphotericin B (2×10^−5 M) (Sigma Chemical Co.), and heparin (20 IU/mL, Gibco, Grand Island, N.Y.), all in a fully humidified atmosphere at 37° C. and 5% CO2. The following elements were added where noted: • 1. […] Endothlial Growth factors: Epidermal growth factor (EGF 10 ng/ml, Sigma Chemical Co.), basic Fibroblast growth factor (bFGF 20 ng/ml, Sigma Chemical Co.) incubated in a serum free medium (SFM) for 48 hr. • 3. Stress mimicking conditions: Hydrocortisone sodium succinate (Abic Ltd., Netanya, Israel) at concentrations equivalent to normal, intermediate and stress serum cortisol levels (0.1, 0.6 and 1.2 μM, respectively (De Vroede et al., Arch. Des. […] Antisense oligonucleotides: 3′-terminal 2′-O-Methylated 15- and 20-mer oligodeoxynucleotides in the antisense (AS) orientation, targeted against the common sequence domain in human AChEmRNA and BuChE mRNA, as control, […], as detailed elsewhere [Grisaru et al. (1999b) Mol. Cell. Biol. 19, 788–95]. • 5. AChE C-terminal peptides: The following C-terminal peptides of the AChE synaptic (ASP, also denoted SEQ ID: No. 2) and readthrough (ARP, also denoted SEQ ID: No. 1) isoforms were synthesized using a 433A peptide synthesizer (PE Applied Biosystems, Inc., Norwalk, Conn.). • ASP: 1-[…]-40, also denoted as SEQ ID: No. 2. • ARP: 1-[…]-26, also denoted as SEQ ID: No. 1.
(§1) Culture Analyses: Twenty-four hr liquid cultures served for cytochemical staining, in situ hybridization, and cell proliferation assay by 5-bromo-2′-deoxy-Uridine (BrdU) incorporation [Grisaru et al. (1999b) id ibid.]. Twenty-eight day liquid cultures were sampled every 6–8 days for viable cell counting (using trypan blue dye exclusion), cell phenotyping (CD34^+, CD33^+ and CD41^+ quantification using flow cytometry, with CD34-PE, CD33-FITC (Immunotech/Coulter, Hialeah, Fla.), CD41-FITC (Immunoquality Products, Groningen, Netherlands) and CD45-FITC monoclonal antibodies), and growth of progenitor colony (granulocyte-macrophage and megakaryocytic), using previously described techniques (Pick et al. (1998) id ibid.). […] 11, 1049–57]. Nuclear staining w with 4′,6-diamidino-2- phenylindole [DAPI, see e.g., Peterson et al. (1999) Genetics 152, 427–439].

Test [3] deals with AChEmRNA transcripts (S, E, R). The test is described as follows: In situ hybridization of AChEmRNA transcripts in cultured CD34+ cells, confocal quantification. Particulars: 24 hr.
Procedure: In Situ Hybridization: In situ hybridization procedures, were performed on cultured cells and human fetal tissues, as detailed elsewhere [Grisaru et al. (1999b) id ibid; Kaufer et al. (1998) id ibid.]. Cultured cells were centrifuged at 300× g and fixed, using 4% paraformaldehyde, to collagen-coated cover slips placed on the bottom of the culture well. […] 5′-Biotinylated, 2′-O-methylated AChEcRNA probes complementary to 3′-alternative human ACHE exons were employed. Detection and quantification of the various AChEmRNA transcripts in fetal tissues were performed as previously described [Grisaru et al. (1999b) id ibid.]. Confocal microscopy scans of the culture-derived cells were obtained using a MRC-1024 Bio-Rad confocal microscope (Hemel Hempsted Herts., UK). A projection was built from each cell image and specific criteria were set for size and intensity of the Fagt Red fluorescence. […]
The assumption that hematopoietic ACHE gene expression is modulated under stress was tested in CD34^+ cells cultured for 24 hr with increasing doses of hydrocortisone. Treated cells were subjected to cytochemical staining for AChE activity as well as to high resolution in situ hybridization followed by confocal microscopic quantification of labeling density. […] Because each cRNA probe has its own characteristic hybridization affinity, each transcript was quantified separately. […]
For test [4], the system named is AChE. In words: Cytochemical staining of AChE catalytic activity in CD34+ cells. The conditions noted are these: 24 hr.
Text: as §1

The mark [5] stands for this setting: 1.2 μM hydrocortisone (stress-associated level).

For the compound `C[C@]12CCC(=O)C=C1CC[C@@H]1[C@@H]2[C@@H](O)C[C@@]2(C)[C@H]1CC[C@]2(O)C(=O)COC(=O)CCC(=O)[O-].[Na+]` [hydrocortisone, Hydrocortisone sodium succinate, reference compound], the Total viable cells in test [1] was found to be 80.0 cells per culture × 10^−3. In addition, in test [2], the “CD33^+ (early myeloids)” value came out at 45.0 cells per culture × 10^−3; the “CD33^+ and CD15^+ (total myeloids)” value was determined as 73.0 cells per culture × 10^−3; the “CD34^+ (early progenitors)” value was 13.0 cells per culture × 10^−3; the “CD41^+ (megakaryocytes)” value is reported as 10.1^b cells per culture × 10^−3. The “selective increase in "readthrough" AChE-R mRNA transcript” value in test [3] (0.60 μM hydrocortisone, above level at 0.10 μM, CD34+ cells) is 40%. In test [3] (setting [5]), the “labeling of all 3 AChEmRNA transcripts” value was “enhanced”. Besides, the “enzyme activity of CD34+ cells” value in test [4] (0.60 μM hydrocortisone) is reported as “no change”. Moreover, the “catalytic activity of the stem cell-associated enzyme” value in test [4] (setting [5]) is “intensified”.
